Assay results as given in PMC6814738, “Bacterial MgrB peptide activates chemoreceptor Fpr3 in mouse accessory olfactory system and drives avoidance behaviour” (Nature Communications, 2019).

Test system: vomeronasal sensory neurons (VSNs)
Experiment: VNO whole-mount en face confocal Ca2+ imaging of VSN dendritic knobs (Fig. 4, 5)
Type: cell-based, mouse
Parameters: key to Ca2+ response of f-MKKFRW-responsive VSN knobs / Fpeak: normalised to knob resting fluorescence F0 before stimulation
From the text: Mice (6–20 week old, either sex) were euthanized by CO2 inhalation according to institutional guidelines. After decapitation, the skin was removed from the skull, the mandible was cut off and the cranium was opened by a sagittal cut, 1–2-mm right-lateral in parallel to the midline. The palate and the right incisor were removed and the hemisected skull was mounted in low-melting agarose (4%). The bony capsule of the VNO was opened with fine forceps and the nonsensory epithelium was stripped off. Tissue and cell debris were gently washed off, and the en face preparation was superfused with physiological S1 solution (120 mM NaCl, 25 mM NaHCO3, 5 mM KCl, 1 mM MgSO4, 1 mM CaCl2, 10 mM glucose, 5 mM BES, pH 7.3) saturated with carbogen (95% O2, 5% CO2).
Loading of the VNE with Rhod-2/AM (5–15 µM, 1 h) was performed in S1 solution under carbogen atmosphere at RT. Images were taken with an upright confocal laser scanning microscope (Leica TCS SP5 II, 20x water immersion objective HCX APO L20x/1.0w) equipped with Ar and He/Ne lasers. GFP was excited at 488 nm, Venus at 514 nm and Rhod-2 at 543 nm. Emission was measured at 490–520 nm (GFP), 520–600 nm (Venus) and 560–680 nm (Rhod-2). To minimise interference between Venus and Rhod-2 fluorescence, images were taken sequentially (sample interval per image, 3–4 s). Peptide stimuli were applied to the VNE surface with a local perfusion system which, when positioned close to the anterior end of the VNO, produced a continuous solution stream from rostral to caudal along the VNO axis. Data analysis was performed with the open source software ImageJ (NIH). Ca^2+ responses of individual dendritic knobs were normalised to the knob resting fluorescence level obtained before stimulation (ratio Fx/F0, Fx = actual fluorescence; F0 = mean fluorescence of 3–5 images before ligand application). Mapping was performed by superimposing Ca^2+ peak images onto images showing intrinsic fluorescence for specific markers.
Predator urine mix was composed of urine from mountain lion, coyote, bobcat, fox and marten (at equal volume ratios), purchased from Predatorpee (USA) and Kieferle (Germany). The fMet peptides were as described above. Stimuli were applied in S2 solution (140 mM NaCl, 5 mM KCl, 10 mM HEPES, 1 mM CaCl2, 1 mM MgCl2, 10 mM glucose, pH 7.3 with NaOH).

## f-MKKFRWVVL [MgrB nonapeptide]
Fig. 4h, mean of individual knobs, n = 103 f-MKKFRW, 21 f-MKKFRWVVL, 68 MKKFRW, 26 f-MGFFIS, 63 PUM
  Fpeak: 0.64
VNE of adult B6 mice, f-MKKFRW 1 µM
  Ca2+ responses in VSNs, in words: VSNs that recognised f-MKKFRW responded also
Adult B6 mice, mean ± s.d., N = 103 (f-MKKFRW), 21 (f-MKKFRWVVL), 68 (MKKFRW), 26 (f-MGFFIS), 63 (PUM), Fig. 4h
  Ca2+ response of f-MKKFRW-responsive VSN knobs: 0.64 ± 0.45
